Experimental findings from PubChem BioAssay (NCI) are described below.

Each structure is given as a SMILES string. Values joined by “and” are separate entries in the source; they are usually repeats but may differ in a detail not shown here. Equal entries are not always repeated.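 Where inhibition never reached the appropriate level, the endpoint shown equals the highest concentration tested. Otherwise, values were interpolated linearly from a five-concentration, 48-hour dose response in 96-well plates. GI50 marks 50% less growth. TGI: concentration producing complete growth inhibition.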

Test systems include SK-MEL-2 melanoma; EKVX NSCLC; NCI-H522 lung; A549 NSCLC; ACHN renal; SF-268 CNS; SW-620 colon; LOX IMVI melanoma; MOLT-4 leukemia; K-562 leukemia.
Common to all, as to assay: growth of human tumour cells (NCI), 48 h

With `CCOC(=O)c1sc(Nc2cc(Cl)ccc2Cl)nc1C`, the TGI with SK-MEL-2 melanoma, in the assay with EKVX NSCLC, with NCI-H522 lung, in the assay on A549 NSCLC, in the assay with ACHN renal and in the assay with SF-268 CNS was above 100 µM throughout. Also, the TGI with SW-620 colon, with LOX IMVI melanoma, in the assay with MOLT-4 leukemia and with K-562 leukemia was above 100 µM throughout.

With `CCOC(=O)Cc1csc(Nc2nc(O)c(C3=c4ccccc4=NC3=O)s2)n1`, the GI50 in the assay with SK-MEL-2 melanoma was 25.7 µM; in the assay on EKVX NSCLC it was 77.6 µM; with NCI-H522 lung it was 27.2 µM; with A549 NSCLC, 32.4 µM; in the assay with ACHN renal it was 23 µM; in the assay on SF-268 CNS, 34.6 µM. Besides, the GI50 with SW-620 colon was 68.5 µM; in the assay with LOX IMVI melanoma it was 22.1 µM; in the assay with MOLT-4 leukemia it was 36.7 µM; with K-562 leukemia, 37.2 µM. In addition, the TGI was above 100 µM with SK-MEL-2 melanoma; above 100 µM with EKVX NSCLC; 97.6 µM with NCI-H522 lung; above 100 µM in the assay on A549 NSCLC; 47.3 µM with ACHN renal; above 100 µM in the assay with SF-268 CNS. Also, the TGI is above 100 µM with SW-620 colon, 54.2 µM with LOX IMVI melanoma, 88.9 µM with MOLT-4 leukemia and above 100 µM with K-562 leukemia.

With `O=C(NCCNc1nccc(-c2c(-c3ccc(F)cc3)nc3sccn23)n1)Nc1cccc(C(F)(F)F)c1`, the GI50 in the assay on SK-MEL-2 melanoma was 3.02 µM; in the assay on EKVX NSCLC, 4.69 µM; in the assay on NCI-H522 lung, 12.2 µM; in the assay with A549 NSCLC it was 5.51 µM; in the assay on ACHN renal, 4.14 µM; in the assay on SF-268 CNS, 12.2 µM. Also, the GI50 in the assay with SW-620 colon was 13.6 µM; in the assay with LOX IMVI melanoma it was 5.36 µM; with MOLT-4 leukemia it was 6.3 µM; in the assay on K-562 leukemia it was 6.14 µM. Moreover, the TGI in the assay with SK-MEL-2 melanoma was found to be 8.8 µM; in the assay on EKVX NSCLC, 30.6 µM; with NCI-H522 lung, 26 µM; in the assay with A549 NSCLC, 24.5 µM; in the assay on ACHN renal it was 36.7 µM; with SF-268 CNS it was 41.1 µM. Moreover, the TGI is 32 µM in the assay on SW-620 colon, 20.7 µM with LOX IMVI melanoma, above 100 µM with MOLT-4 leukemia and above 100 µM in the assay with K-562 leukemia.

`CCN1C2=C(SC(=S)C1=C1SC(C(=O)c3ccccc3)=C(C(=O)c3ccccc3)S1)SC(=Nc1ccccc1)C2=O`: the GI50 in the assay on SK-MEL-2 melanoma was 7.74 µM; in the assay on EKVX NSCLC, 80.4 µM; with NCI-H522 lung, 5.43 µM; with A549 NSCLC, above 100 µM; in the assay on ACHN renal it was 37.3 µM; in the assay on SF-268 CNS it was 8.24 µM. Moreover, the GI50 in the assay with SW-620 colon was 1.14 µM; with LOX IMVI melanoma it was 1.43 µM; in the assay with MOLT-4 leukemia, 0.625 µM; in the assay with K-562 leukemia, 4.91 µM. In addition, the TGI in the assay on SK-MEL-2 melanoma was above 47.3 µM; with EKVX NSCLC, above 100 µM; with NCI-H522 lung it was above 20.8 µM; with A549 NSCLC, above 100 µM; in the assay on ACHN renal, above 100 µM; with SF-268 CNS, above 100 µM. The TGI was 8.38 µM in the assay on SW-620 colon, 7.06 µM in the assay with LOX IMVI melanoma, above 22.2 µM with MOLT-4 leukemia and above 100 µM with K-562 leukemia.

For the compound `COC(=O)c1oc([N+](=O)[O-])c(-c2ccccc2)c1-c1ccccc1`, the TGI in the assay on SK-MEL-2 melanoma, in the assay with EKVX NSCLC, in the assay with NCI-H522 lung, in the assay on A549 NSCLC, in the assay on ACHN renal and in the assay on SF-268 CNS was above 100 µM each time. Besides, the TGI with SW-620 colon, with LOX IMVI melanoma, in the assay on MOLT-4 leukemia and with K-562 leukemia was above 100 µM each time.

In the case of `COc1ncnn2ccc(-c3cnc4nc(C)n(Cc5nnc(C(C)F)o5)c4c3)c12` (stereo not given), the GI50 in the assay on SK-MEL-2 melanoma was 0.0748 µM; with EKVX NSCLC it was 0.272 µM; with NCI-H522 lung, 0.0859 µM; in the assay with A549 NSCLC it was 0.136 µM; in the assay on ACHN renal it was 0.24 µM; in the assay on SF-268 CNS it was 0.526 µM. In addition, the GI50 with SW-620 colon is 0.0511 µM; in the assay with LOX IMVI melanoma, 0.144 µM; in the assay on MOLT-4 leukemia, 0.231 µM; in the assay with K-562 leukemia, 0.163 µM. For the same compound, the TGI with SK-MEL-2 melanoma is 0.236 µM; in the assay on EKVX NSCLC, above 36.4 µM; with NCI-H522 lung, 0.363 µM; in the assay on A549 NSCLC it was above 100 µM; in the assay on ACHN renal it was above 100 µM; in the assay on SF-268 CNS, above 80.5 µM. For the same compound, the TGI is above 100 µM with SW-620 colon, 0.619 µM in the assay with LOX IMVI melanoma, above 20.8 µM in the assay with MOLT-4 leukemia and above 100 µM in the assay on K-562 leukemia.

Take `CC(C)c1ccc2c(c1)CCC1C(C)(CN)CCCC21C` (stereo not given): the TGI is 3.15 µM in the assay on SK-MEL-2 melanoma; 3.4 µM with EKVX NSCLC; 3.36 µM with NCI-H522 lung; 3.37 µM in the assay on A549 NSCLC; 3.09 µM in the assay with ACHN renal; 3.22 µM in the assay on SF-268 CNS. The TGI is 2.9 µM in the assay on SW-620 colon, 2.99 µM with LOX IMVI melanoma, 3.61 µM in the assay on MOLT-4 leukemia and 3.01 µM with K-562 leukemia.

Consider `COc1cccc(Nc2ncnn3ccc(CN4CC[C@@H](N)[C@H](O)C4)c23)c1`, for which the GI50 was 19.9 µM and > 4.7 µM in the assay with SK-MEL-2 melanoma; 0.0275 µM and 0.0282 µM with EKVX NSCLC; 0.0245 µM and 0.0175 µM in the assay with NCI-H522 lung; 2.22 µM and 0.928 µM with A549 NSCLC; 0.0305 µM and 0.0373 µM in the assay with ACHN renal; 4.42 µM and 1.62 µM in the assay with SF-268 CNS. Also, the GI50 in the assay on SW-620 colon is 17.7 µM and > 4.35 µM; with LOX IMVI melanoma, 4.58 µM and 1.33 µM; with MOLT-4 leukemia, 5.68 µM and 2.26 µM; in the assay on K-562 leukemia it was 0.285 µM and 0.168 µM. Besides, the TGI in the assay on SK-MEL-2 melanoma was 39.8 µM and > 7.19 µM; in the assay with EKVX NSCLC, above 100 µM; in the assay on NCI-H522 lung, 15.1 µM and > 4.56 µM; with A549 NSCLC it was 23.6 µM and > 7.05 µM; in the assay on ACHN renal, 6.96 µM and 7.74 µM; in the assay on SF-268 CNS, 99.7 µM and > 6.67 µM. Also, the TGI in the assay on SW-620 colon is 44.5 µM and > 10 µM; in the assay on LOX IMVI melanoma it was 21.1 µM and > 5.65 µM; in the assay with MOLT-4 leukemia, 33.2 µM and > 10 µM; in the assay on K-562 leukemia, 10.2 µM and > 10 µM.
